{
  "source": "patent US11352368B2",
  "about": "“Salt of fused ring pyrimidine compound, crystal form thereof and preparation method therefor and use thereof” (GUANGZHOU MAXINOVEL PHARMACEUTICALS CO., LTD., priority 2018, dated 2022)",
  "key": {"[1]": {"assay": "Solubility test of the salts in pure water (Example 6)", "assay_type": "physicochemical", "details": "room temperature, balancing about 20 hours, HPLC", "protocol": "2.0 mg of sample was precisely weighed into a liquid phase vial, 1.0 mL of purified water was added, the vial was subjected to ultrasonic treatment for about 30 seconds to disperse the samples evenly, then the vial was placed on a Labquaker rotator, and slowly rotated at room temperature for balancing. After balancing for about 20 hours, each vial was removed, and the solution was filtered with 0.45 μm nylon filter membrane. The filtrate was diluted by DMSO or not diluted and then detected by HPLC. At the same time, two parts of fused ring pyrimidine compounds were weighed and dissolved in DMSO to make standard solutions with concentration of 250 μg/mL and 500 μg/mL, respectively. The standard solutions were subjected to the HPLC detection. The sample concentration vs the peak area of HPLC principal component was used for make a standard curve, and the solubility of each sample in pure water was calculated by a external standard method."}, "[2]": {"assay": "Solubility test of crystal form A and crystal form B in a medium (Example 12)", "assay_type": "physicochemical", "details": "for Solubility (calculated by free base of the fused ring pyrimidine compound): in mg/mL (unit assumed)", "excerpt": "Example 12 Solubility Test of the Crystal Form A of the Fumarate of Fused Ring Pyrimidine Compound as Shown in Formula 2 and the Crystal Form B of the Adipate of Fused Ring Pyrimidine Compound as Shown in Formula 3 in a Medium"}, "[3]": {"assay": "Stability test (total impurities, 20 days)", "assay_type": "physicochemical", "protocol": "The crystal form A of the fumarate of fused ring pyrimidine compound as shown in formula 2, the crystal form B of the adipate of fused ring pyrimidine compound as shown in formula 3 and the fused ring pyrimidine compound as shown in formula 1 were subjected to tests at a high temperature of 60° C., 25° C./60% RH, 40° C./75% RH and highlight irradiation (4500 lx±500 lx), the test time was 20 days, the sample bottles were placed under different test conditions, and samples were taken at 0 and 20 days to detect the total amount of impurities, and the test results were shown in Table 8 below."}, "[4]": {"assay": "Pharmacokinetic experiment, single intragastric dose in rats", "assay_type": "in vivo, SD rats", "details": "single dose 10 mg/kg, 0.5% MC and 0.5% Tween80 in water", "protocol": "1) Preparation of animals 9 healthy male SD rats, each with a body weight of 220-230 g, were taken, fed with standard formulated granulated feed for rats at fixed times every day, and fasted for 12 hours before the experiment, and feeding was resumed after 4 hours of administration. Rats were free to drink water before, after and during the experiment. 9 rats were randomly divided into 3 groups.\n2) Formulation of drugs: The fused ring pyrimidine compound as shown in formula 1, the crystal form A of the fumarate of fused ring pyrimidine compound as shown in formula 2 and the crystal form B of the adipate of fused ring pyrimidine compound as shown in formula 3 were accurately weighed, and were formulated into a 1 mg/mL solution in water (Wahaha/111830) with 0.5% MC (Fluka/BCBK3534K) and 0.5% Tween80 (TCl/V4FSC), respectively.\n3) Intragastric administration with single dose (10 mg/kg): in the first group, rats were intragastrically administered with a solution of the fused ring pyrimidine compound as shown in formula 1, in the second group, rats were intragastrically administered with a solution of the crystal form A of the fumarate of fused ring pyrimidine compound as shown in formula 2, and in the third group, rats were intragastrically administered with a solution of the crystal form B of the adipate of fused ring pyrimidine compound as shown in formula 3.\n4) Collection of blood samples: About 150 μL of blood was taken from the fundus venous plexus before administration and 0.083, 0.25, 0.5, 1, 2, 4, 8 and 24 hours after administration from each rat in the three groups, and anticoagulated with K2EDTA, plasma was separated by centrifugation and the supernatant was collected for LC-MS analysis."}, "JAK": {"tested_on": "JAK", "details": "cited from earlier work"}, "FGFR": {"tested_on": "FGFR", "details": "cited from earlier work"}, "FLT3": {"target": "T1, FLT3 (Homo sapiens, UniProt P36888)", "T1 sequence (P36888 27-993)": "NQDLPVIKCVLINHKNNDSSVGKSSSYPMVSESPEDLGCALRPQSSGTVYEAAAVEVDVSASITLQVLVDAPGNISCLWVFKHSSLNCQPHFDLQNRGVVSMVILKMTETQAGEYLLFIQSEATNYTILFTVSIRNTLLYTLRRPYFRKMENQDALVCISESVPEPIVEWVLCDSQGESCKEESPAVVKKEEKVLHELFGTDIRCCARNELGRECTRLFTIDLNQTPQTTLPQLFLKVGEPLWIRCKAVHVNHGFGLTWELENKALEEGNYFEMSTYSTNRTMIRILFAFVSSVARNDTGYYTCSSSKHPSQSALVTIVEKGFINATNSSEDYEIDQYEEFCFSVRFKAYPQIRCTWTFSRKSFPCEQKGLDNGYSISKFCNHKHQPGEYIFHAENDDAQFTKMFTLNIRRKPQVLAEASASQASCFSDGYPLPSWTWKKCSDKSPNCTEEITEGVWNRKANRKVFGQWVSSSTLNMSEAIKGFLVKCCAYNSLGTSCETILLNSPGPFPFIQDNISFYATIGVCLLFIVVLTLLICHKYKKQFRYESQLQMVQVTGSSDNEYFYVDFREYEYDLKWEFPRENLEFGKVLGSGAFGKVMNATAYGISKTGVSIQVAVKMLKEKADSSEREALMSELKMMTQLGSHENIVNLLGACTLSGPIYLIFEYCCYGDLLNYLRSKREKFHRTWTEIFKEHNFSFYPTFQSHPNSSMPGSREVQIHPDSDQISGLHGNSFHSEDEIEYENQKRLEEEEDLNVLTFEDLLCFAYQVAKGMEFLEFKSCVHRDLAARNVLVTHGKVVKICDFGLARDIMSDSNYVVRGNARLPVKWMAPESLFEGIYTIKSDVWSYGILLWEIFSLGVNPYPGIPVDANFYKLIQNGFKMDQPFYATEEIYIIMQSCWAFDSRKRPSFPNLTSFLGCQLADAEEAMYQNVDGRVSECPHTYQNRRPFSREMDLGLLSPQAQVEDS", "details": "cited from earlier work"}, "Src kinase": {"tested_on": "Src kinase", "details": "cited from earlier work"}, "[5]": {"details": "medium intestinal fluid in simulated fed state (FeSSIF)"}, "[6]": {"details": "medium pH 4 (50 mM phosphate buffer)"}, "[7]": {"details": "medium pH 6 (50 mM phosphate buffer)"}},
  "data": [
    {"compound": "COc1cc(F)ccc1-c1c(C)sc2cnc(Nc3cnn(C4CCNCC4)c3)nc12", "note": "[The fused ring pyrimidine compound as shown in formula 1] [N-[7-(4-fluoro-2-methoxyphenyl)-6-methylthieno[3,2-d]pyrimidin-2-yl]-1-(piperidin-4-yl)-1H-pyrazol-4-amine]", "values": [
      {"measurement": "saturated solubility", "setting": "[1]", "result": "<1", "unit": "µg/mL"},
      {"measurement": "pH value of sample solution for solubility", "setting": "[2]; medium Purified water", "result": 8.29},
      {"measurement": "Solubility (calculated by free base of the fused ring pyrimidine compound)", "setting": "[2]; medium Purified water", "result": "<0.001"},
      {"measurement": "pH value of sample solution for solubility", "setting": "[2]; [5]", "result": 5.27},
      {"measurement": "Solubility (calculated by free base of the fused ring pyrimidine compound)", "setting": "[2]; [5]", "result": 1.469},
      {"measurement": "pH value of sample solution for solubility", "setting": "[2]; [6]", "result": 5.67},
      {"measurement": "Solubility (calculated by free base of the fused ring pyrimidine compound)", "setting": "[2]; [6]", "result": 0.054},
      {"measurement": "pH value of sample solution for solubility", "setting": "[2]; [7]", "result": 6.29},
      {"measurement": "Solubility (calculated by free base of the fused ring pyrimidine compound)", "setting": "[2]; [7]", "result": 0.025},
      {"measurement": "Impurity content", "setting": "[3]; Day 0", "result": 1.44, "unit": "%"},
      {"measurement": "Impurity content", "setting": "[3]; Day 20, 25° C/60% RH", "result": 1.46, "unit": "%"},
      {"measurement": "Impurity content", "setting": "[3]; Day 20, 40° C/75% RH", "result": 1.49, "unit": "%"},
      {"measurement": "Impurity content", "setting": "[3]; Day 20, 60° C", "result": 1.44, "unit": "%"},
      {"measurement": "Impurity content", "setting": "[3]; Day 20, Light (4500 lx±500 lx)", "result": 2.06, "unit": "%"},
      {"measurement": "chemical stability in the condition of high temperature and high humidity", "setting": "[3]; high temperature and high humidity, 20 days", "result": "good chemical stability"},
      {"measurement": "Blood drug concentration (AUC)", "setting": "[4]", "result": 57.7, "unit": "ng·h/mL"},
      {"measurement": "inhibitory effect on JAK", "setting": "JAK", "result": "good inhibitory effect"},
      {"measurement": "inhibitory effect on FGFR", "setting": "FGFR", "result": "good inhibitory effect"},
      {"measurement": "inhibitory effect on FLT3", "setting": "FLT3", "result": "good inhibitory effect"},
      {"measurement": "inhibitory effect on Src kinase", "setting": "Src kinase", "result": "good inhibitory effect"}
    ]}
  ]
}
